Holding throughout (format): biochemical
For one experiment, the target named is T1, ALDH2*1/*1 (Homo sapiens, UniProt P05091).
T1 construct: His-tag (N); made in house; host or cells: E. coli BL21 (pTrcHis vector)
T1 sequence (P05091 18-517): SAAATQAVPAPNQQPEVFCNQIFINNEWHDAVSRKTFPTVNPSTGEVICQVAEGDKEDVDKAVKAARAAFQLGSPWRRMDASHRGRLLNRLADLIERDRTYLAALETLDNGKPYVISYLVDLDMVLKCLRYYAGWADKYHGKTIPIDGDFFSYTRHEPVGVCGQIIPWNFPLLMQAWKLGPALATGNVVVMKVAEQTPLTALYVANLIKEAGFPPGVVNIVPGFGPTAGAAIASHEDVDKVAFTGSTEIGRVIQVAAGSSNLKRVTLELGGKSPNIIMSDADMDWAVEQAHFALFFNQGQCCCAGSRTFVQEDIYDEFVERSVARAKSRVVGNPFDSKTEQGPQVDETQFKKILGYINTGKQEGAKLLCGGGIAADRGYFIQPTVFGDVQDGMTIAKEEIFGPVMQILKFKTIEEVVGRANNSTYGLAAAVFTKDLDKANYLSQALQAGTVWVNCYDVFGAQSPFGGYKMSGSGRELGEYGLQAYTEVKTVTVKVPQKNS
Kind of experiment: ALDH2 enzymatic activity, NADH accumulation at 340 nm, acetaldehyde substrate, wild type. Conditions: relative to baseline enzymatic activity (100%); for activity at 2.5 µM: 2.5 μM compound; for activity at 5 µM: 5 μM compound; for activity at 10 µM: 10 μM compound; for activity at 20 µM: 20 μM compound. As for the experimental part:
(§1) ALDH2 catalyzes the oxidative reaction of substrate acetaldehyde to acetic acid using NAD^+ as a cofactor. Enzymatic activity, or catalytic rate, of aldehyde dehydrogenase (ALDH2) are measured spectrophotometrically at UV wavelength λ340 nm by the accumulation of reduced product NADH derived from NAD^+. Absorbance at λ340 nm is quantitatively proportional to the amount of NADH being produced over time (6.22 O.D. unit=1 mmol of NADH, measured in a 1-cm width standard cuvette). This method is well-established in the literature [e.g. Rex et al., Alcohol Clin. Exp. Res. 9, 147 (1985)].
(§2) ALDH2 catalyzes the oxidative reaction of substrate acetaldehyde to acetic acid using NAD^+ as a cofactor. Enzymatic activity, or catalytic rate, of aldehyde dehydrogenase (ALDH2) can be measured spectrophotometrically at UV wavelength λ340 nm by the accumulation of reduced product NADH derived from NAD^+. Absorbance at λ340 nm is quantitatively proportional to the amount of NADH being produced over time (6.22 O.D. unit=1 mmol of NADH, measured in a 1-cm width standard cuvette). This method is well-established in the literature [e.g. Rex et al., Alcohol Clin. Exp. Res. 9, 147 (1985)].
(§3) Cloning, expression and purification of human ALDH2 wild type and ALDH2*2 recombinant mutant enzymes: Full-length wild type human ALDH2 cDNA was purchased from ATCC (No. MGC-1806. GenBank ID: BC002967). The 18-amino acid mitochondria transport signal sequence was removed by PCR and cloned into the NheI/HindIII sites of a His-tag vector, pTrcHis, using standard molecular cloning techniques. The human ALDH2* cDNA construct containing the Asian E487K mutation was obtained by site-directed mutagenesis to create the E487K substitution of the wild type ALDH2. Both human clones were designed to express a recombinant protein with the His-tag at the N-terminus of the protein. For the co-expression experiments of human ALDH2 wild type and ALDH2*2 heterotetramers, a wild type ALDH2 gene and a ALDH2 E487K gene were inserted separately into the two multiple cloning sites of pETDuet-1 vector. (Novagen, CA, USA). All the vectors were transformed into BL21 E. coli host cells and subjected to 0.5 mM IPTG induction for protein expression at 30° C. Purifications of the recombinant proteins by affinity nickel columns (HisTrap, GE Healthy Science, USA) were carried out using standard protocols according to manufacturer's instructions (Novagen, USA).
(§4) ALDH2 catalyzes the oxidative reaction of substrate acetaldehyde to acetic acid using NAD^+ as a cofactor. Enzymatic activity, or catalytic rate, of aldehyde dehydrogenase (ALDH2) can be measured spectrophotometrically at UV wavelength λ340 nm by the accumulation of reduced product NADH derived from NAD^+. Because compounds of formula (I) are considered to be agonists or “activators” of ALDH2 the enzymatic activity measured will exceed 100% of the baseline enzymatic activity of the enzyme in its normal activation state. As the concentration of the compounds of formula (I) decreases from 20 micromolar to 0.16 micromolar in the presence of ALDH, a decrease in the activation of enzymatic activity is observed for the wild-type ALDH2*1/*1 and the heterozygous form ALDH2*1/*2.

For the next experiment, the target named is T2, ALDH2*1/*2 (Homo sapiens, UniProt P05091, E504K).
T2 construct: His-tag; made in house; host or cells: E. coli BL21 (pETDuet-1 co-expression)
T2 sequence (P05091 18-517): T1 sequence (P05091 18-517)
T2 sequence (P05091 18-517 E504K): T1 sequence (P05091 18-517) with E487K
The experiment is described as follows: ALDH2 enzymatic activity, NADH accumulation at 340 nm, acetaldehyde substrate, heterozygous form. Conditions: relative to baseline enzymatic activity (100%); for activity at 2.5 µM: 2.5 μM compound; for activity at 5 µM: 5 μM compound; for activity at 10 µM: 10 μM compound; for activity at 20 µM: 20 μM compound. As to the method: as §1, §2, §3, §4

For another experiment, the target named is T3, ALDH2 (Homo sapiens, UniProt P05091).
T3 construct: His-tag (N); made in house; host or cells: E. coli BL21
T3 sequence (P05091 18-517): T1 sequence (P05091 18-517)
The experiment is described as follows: ALDH2 activity with 20 μM of the compound (Table 3). Particulars: 20 μM compound. The method in brief:
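Compound was tested at 20 μM. ALDH2 oxidation of acetaldehyde with NAD+ cofactor was followed spectrophotometrically as NADH accumulation at 340 nm. Activity is expressed relative to the enzyme's baseline activity, taken as 100%.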

Positions count from the first letter of the chain named.

For the molecule `COc1ccc(CNC(=O)c2cc(-c3cccc(F)c3CO)cnc2OCC2CC2)cc1F` [AC18], on ALDH2*1/*1, the activity at 2.5 µM worked out at 119%, the activity at 5 µM was determined as 131%, the activity at 10 µM was 171% and the activity at 20 µM turned out to be 187%. Moreover, on ALDH2*1/*2, the activity at 2.5 µM is 127%, the activity at 5 µM amounted to 145%, the activity at 10 µM amounted to 172% and the activity at 20 µM was determined as 197%. Moreover, the activity at 20 µM on ALDH2 is 150 to 250%.
Take `COc1ccc(CNC(=O)c2cc(-c3c(F)cccc3CO)cnc2OCC2CC2)cc1F` [AC19]: at ALDH2*1/*1, the activity at 2.5 µM is 132%, the activity at 5 µM came to 143%, the activity at 10 µM stood at 214% and the activity at 20 µM stood at 236%. For the same molecule, on ALDH2*1/*2, the activity at 2.5 µM is 133%, the activity at 5 µM turned out to be 163%, the activity at 10 µM was 191% and the activity at 20 µM was 230%. At ALDH2, the activity at 20 µM was greater than 250%.
For `COc1ccc(CNC(=O)c2cc(-c3ccccc3CO)ncc2OCC2CC2)cc1F` [AC3], on ALDH2*1/*1, the activity at 2.5 µM came out at 150%, the activity at 5 µM came to 195%, the activity at 10 µM was found to be 220% and the activity at 20 µM came out at 319%. At ALDH2*1/*2, the activity at 2.5 µM amounted to 180%, the activity at 5 µM came out at 245%, the activity at 10 µM amounted to 310% and the activity at 20 µM was found to be 376%. Also, at ALDH2, the activity at 20 µM is 150 to 250%.
Regarding `COc1ccc(CNC(=O)c2cc(-c3c(F)cccc3CO)ccc2OCC2CC2)cc1F` [AC22], on ALDH2*1/*1, the activity at 2.5 µM was determined as 172%, the activity at 5 µM is 263%, the activity at 10 µM was 313% and the activity at 20 µM came out at 437%. Also, at ALDH2*1/*2, the activity at 2.5 µM was 160%, the activity at 5 µM turned out to be 194%, the activity at 10 µM was found to be 253% and the activity at 20 µM turned out to be 143%. Also, the activity at 20 µM at ALDH2 is greater than 250%.
For `COc1ccc(CNC(=O)c2cc(-c3cnccc3CO)ccc2OCC2CC2)cc1F` [AC5], on ALDH2*1/*1, the activity at 2.5 µM worked out at 266%, the activity at 5 µM was 330%, the activity at 10 µM is 352% and the activity at 20 µM amounted to 487%. Also, on ALDH2*1/*2, the activity at 2.5 µM amounted to 318%, the activity at 5 µM came out at 382%, the activity at 10 µM came out at 428% and the activity at 20 µM was determined as 504%. The activity at 20 µM at ALDH2 is greater than 250%.
`COc1ccc(CNC(=O)c2cc(-c3cscc3CO)ccc2OCC2CC2)cc1F` [AC29]: at ALDH2*1/*1, the activity at 2.5 µM is 283%, the activity at 5 µM was determined as 334%, the activity at 10 µM was determined as 422% and the activity at 20 µM was found to be 445%. Besides, on ALDH2*1/*2, the activity at 2.5 µM was 260%, the activity at 5 µM turned out to be 349%, the activity at 10 µM came out at 392% and the activity at 20 µM was found to be 423%. Moreover, on ALDH2, the activity at 20 µM was greater than 250%.
In the case of `COc1ccc(CNC(=O)c2cc(-c3ccc(F)cc3CO)ccc2OCC2CC2)cc1F` [AC23], at ALDH2*1/*1, the activity at 2.5 µM worked out at 210%, the activity at 5 µM was determined as 262%, the activity at 10 µM turned out to be 291% and the activity at 20 µM was found to be 375%. Besides, on ALDH2*1/*2, the activity at 2.5 µM came out at 187%, the activity at 5 µM is 252%, the activity at 10 µM came out at 263% and the activity at 20 µM was 196%. At ALDH2, the activity at 20 µM was greater than 250%.
For the molecule `COc1ccc(CNC(=O)c2cc(-c3ncccc3CO)cnc2OCC2CC2)cc1F` [AC8], on ALDH2*1/*1, the activity at 2.5 µM was 164%, the activity at 5 µM was 223%, the activity at 10 µM came out at 319% and the activity at 20 µM came out at 370%. At ALDH2*1/*2, the activity at 2.5 µM turned out to be 221%, the activity at 5 µM stood at 299%, the activity at 10 µM is 328% and the activity at 20 µM is 479%. In addition, the activity at 20 µM on ALDH2 is greater than 250%.
Regarding `COc1ccc(CNC(=O)c2cc(-c3ccsc3CO)cnc2OCC2CC2)cc1F` [AC25, 2-(cyclopropylmethoxy)-N-(3-fluoro-4-methoxybenzyl)-5-(2-(hydroxymethyl)thiophen-3-yl)nicotinamide], at ALDH2*1/*1, the activity at 2.5 µM came out at 273%, the activity at 5 µM was determined as 341%, the activity at 10 µM is 422% and the activity at 20 µM worked out at 382%. For the same molecule, at ALDH2*1/*2, the activity at 2.5 µM was 267%, the activity at 5 µM was found to be 321%, the activity at 10 µM was determined as 343% and the activity at 20 µM was 260%. For the same molecule, the activity at 20 µM on ALDH2 is greater than 250%.
As to `COc1ccc(CNC(=O)c2cc(-c3ccsc3CO)ccc2OCC2CC2)cc1F` [AC27], at ALDH2*1/*1, the activity at 2.5 µM came to 293%, the activity at 5 µM worked out at 315%, the activity at 10 µM turned out to be 379% and the activity at 20 µM stood at 364%. Besides, on ALDH2*1/*2, the activity at 2.5 µM was determined as 323%, the activity at 5 µM came out at 420%, the activity at 10 µM worked out at 419% and the activity at 20 µM was found to be 410%. Also, the activity at 20 µM on ALDH2 is greater than 250%.
As for `COc1ccc(CNC(=O)c2cc(-c3cccnc3CO)cnc2OCC2CC2)cc1F` [AC11], at ALDH2*1/*1, the activity at 2.5 µM was found to be 123%, the activity at 5 µM amounted to 135%, the activity at 10 µM was 169% and the activity at 20 µM was 211%. Also, at ALDH2*1/*2, the activity at 2.5 µM was determined as 125%, the activity at 5 µM stood at 158%, the activity at 10 µM was determined as 185% and the activity at 20 µM was determined as 248%. Moreover, the activity at 20 µM on ALDH2 lay in the range of 150 to 250%.

These data come from patent publication US9879036B2, “Mitochondrial aldehyde dehydrogenase-2 binding compounds and methods of use thereof” (Aviv Therapeutics, Inc., priority 2014, dated 2018).
